The target of one series is T1, PAH (Rattus norvegicus, UniProt P04176).
T1 sequence (P04176 1-453): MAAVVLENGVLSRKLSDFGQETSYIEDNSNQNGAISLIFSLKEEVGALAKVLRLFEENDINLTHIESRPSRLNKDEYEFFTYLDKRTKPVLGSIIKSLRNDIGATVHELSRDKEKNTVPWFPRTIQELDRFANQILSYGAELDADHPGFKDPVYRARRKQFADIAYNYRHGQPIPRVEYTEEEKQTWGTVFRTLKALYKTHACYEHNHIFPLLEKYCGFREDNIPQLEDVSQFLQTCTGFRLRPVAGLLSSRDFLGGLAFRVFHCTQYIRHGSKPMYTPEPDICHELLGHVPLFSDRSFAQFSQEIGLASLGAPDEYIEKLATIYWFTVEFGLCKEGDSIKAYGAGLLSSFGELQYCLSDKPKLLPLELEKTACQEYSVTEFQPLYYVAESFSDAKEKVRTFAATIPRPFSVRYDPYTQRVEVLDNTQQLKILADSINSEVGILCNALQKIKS
To be noted: cited from earlier work.

Series [1] concerns the target T2, rat PAH (Rattus norvegicus, UniProt P04176).
T2 construct: expression vectors for full length untagged rat and human PAH from Prof; P. Fitzpatrick; made in house
T2 sequence (P04176 1-453): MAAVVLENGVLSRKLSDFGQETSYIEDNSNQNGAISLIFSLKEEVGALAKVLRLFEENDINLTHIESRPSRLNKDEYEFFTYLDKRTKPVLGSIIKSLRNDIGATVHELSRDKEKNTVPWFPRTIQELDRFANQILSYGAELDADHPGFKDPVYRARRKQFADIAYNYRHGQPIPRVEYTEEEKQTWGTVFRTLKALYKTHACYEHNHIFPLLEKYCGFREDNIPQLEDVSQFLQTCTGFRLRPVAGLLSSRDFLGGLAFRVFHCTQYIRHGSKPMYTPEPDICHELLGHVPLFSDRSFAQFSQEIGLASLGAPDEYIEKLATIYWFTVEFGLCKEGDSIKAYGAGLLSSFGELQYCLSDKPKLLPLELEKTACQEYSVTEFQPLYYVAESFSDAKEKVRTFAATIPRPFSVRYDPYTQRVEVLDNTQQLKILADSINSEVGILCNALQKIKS
The series is described as follows: Ion exchange chromatography of rat PAH (HiTrap Q, KCl gradient). To be noted: 1 mM Phe in the elution buffer, 30 mM Tris-HCl, KCl gradient (FIG. 7E). How it is done:
(§1) FIG. 7 represents preliminary results on purified mammalian PAH. […] Full length human PAH, cleaved from an N-terminal MBP fusion construct, runs at a dimer:tetramer ratio of ˜2:1 on a calibrated Superdex-200 column. With 1 mM Phe added to the running buffer, this ratio is shifted to ˜1:1. Buffers contain 125 mM KCl, which is known to stabilize the tetramer. FIG. 7B represents preliminary kinetic studies on purified rat PAH, monitoring tyrosine fluorescence, showing “order of addition” effects at 300 μM Phe and 75 μM BH4. […] FIG. 7E is a full length rat PAH ([…]), run on a 1 ml HiTrap Q column in 30 mM Tris-HCl with a KCl gradient (B=400 mM KCl). […] FIG. 7F is native PhastGel Western blot showing the effects of ligands on the rat PAH quaternary structure equilibrium (overnight, RT, ˜1 mg/ml). Lane 1—as purified; Lane 2—1 mM Phe; Lane 3—50 μM Phe; Lane 4—75 μM BH4; Lane 5, 50 μPhe+75 μM BH4.
(§2) With regard to the oligomeric equilibrium, rat PAH (in 15% glycerol) is found to be predominantly tetrameric by both native PAGE and SEC (FIGS. 7C & 7D). […] Coupled with the SEC results in FIG. 7D, this illustrates that IEC can be used to separate two tetramers, 4mer and 4mer*.

Series [2] deals with T2, rat PAH. The series is described as follows: SEC of purified rat PAH (Superdex 200). To be noted: Phe in running buffer (FIG. 7D). How it is done:
as §1, §2

The target in series [3] is T2, rat PAH. The experiment in a line: Native PAGE (PhastGel Western blot) of rat PAH quaternary structure equilibrium. The settings on record: ~1 mg/ml rat PAH, overnight, RT; 1 mM or 50 μM Phe, 75 μM BH4. As for the experimental part: as §1, §2
For orientation: A western blot detects proteins with antibodies after separation by electrophoresis.

Series [4] concerns the molecule itself. The series is described as follows: SEC on calibrated Superdex-200, buffer with 125 mM KCl, no Phe; self-association of PAH subunits. As for the experimental part:
as §1

Series [5] deals with the molecule itself. The experiment in a line: SEC on calibrated Superdex-200, buffer with 125 mM KCl and 1 mM Phe; self-association of PAH subunits. As for the experimental part:
as §1

Series [6] deals with the molecule itself. The series is described as follows: SEC on Superdex 200 (FIG. 7D); self-association.

Where two headings read alike, the source gives them in different places.

What is called Kd is a measure of binding affinity in units of concentration. In the case of `C[C@H](O)[C@H](O)[C@H]1CNc2nc(N)[nH]c(=O)c2N1` [BH4, tetrahydrobiopterin], the Kd was roughly 14 µM at PAH (high-activity forms of PAH, read-out: Kd, binding to the high-activity forms of PAH) and roughly 0.1 µM on PAH (low-activity form(s) of PAH, read-out: Kd, binding to the low-activity form(s) of PAH).
For the molecule `N[C@@H](Cc1ccccc1)C(=O)O` [Phe, phenylalanine], the “effect on IEC elution profile” value at rat PAH [1] is given as “dramatically alters the elution profile”. The “effect on tetramer predominance by SEC” value on rat PAH [2] was “not altered”. For the same molecule, at rat PAH [3], the “effect on distribution of PAH quaternary structure isoforms by native PAGE” value was “alters the distribution of PAH quaternary structure isoforms”.

B1: Full length human phenylalanine hydroxylase (PAH), cleaved from an N-terminal MBP fusion construct (enzyme, UniProt P00439 1-452, looked up)
chain: MSTAVLENPGLGRKLSDFGQETSYIEDNCNQNGAISLIFSLKEEVGALAKVLRLFEENDVNLTHIESRPSRLKKDEYEFFTHLDKRSLPALTNIIKILRHDIGATVHELSRDKKKDTVPWFPRTIQELDRFANQILSYGAELDADHPGFKDPVYRARRKQFADIAYNYRHGQPIPRVEYMEEEKKTWGTVFKTLKSLYKTHACYEYNHIFPLLEKYCGFHEDNIPQLEDVSQFLQTCTGFRLRPVAGLLSSRDFLGGLAFRVFHCTQYIRHGSKPMYTPEPDICHELLGHVPLFSDRSFAQFSQEIGLASLGAPDEYIEKLATIYWFTVEFGLCKQGDSIKAYGAGLLSSFGELQYCLSEKPKLLPLELEKTAIQNYTVTEFQPLYYVAESFNDAKEKVRNFAATIPRPFSVRYDPYTQRIEVLDNTQQLKILADSINSEIGILCSALQKIK
notes: mature; also called human PAH
As for B1, the figures for the “dimer:tetramer ratio” value in series [4] and in series [5] were ~2 dimer:tetramer ratio (x:1) and ~1 dimer:tetramer ratio (x:1), respectively.

B2: Full length untagged rat phenylalanine hydroxylase (PAH), purified by the Shiman affinity method (enzyme, UniProt P04176 2-453, looked up)
chain: AAVVLENGVLSRKLSDFGQETSYIEDNSNQNGAISLIFSLKEEVGALAKVLRLFEENDINLTHIESRPSRLNKDEYEFFTYLDKRTKPVLGSIIKSLRNDIGATVHELSRDKEKNTVPWFPRTIQELDRFANQILSYGAELDADHPGFKDPVYRARRKQFADIAYNYRHGQPIPRVEYTEEEKQTWGTVFRTLKALYKTHACYEHNHIFPLLEKYCGFREDNIPQLEDVSQFLQTCTGFRLRPVAGLLSSRDFLGGLAFRVFHCTQYIRHGSKPMYTPEPDICHELLGHVPLFSDRSFAQFSQEIGLASLGAPDEYIEKLATIYWFTVEFGLCKEGDSIKAYGAGLLSSFGELQYCLSDKPKLLPLELEKTACQEYSVTEFQPLYYVAESFSDAKEKVRTFAATIPRPFSVRYDPYTQRVEVLDNTQQLKILADSINSEVGILCNALQKIKS
notes: mature; Homo-oligomer found predominantly as tetramer, with some dimer; also called rat PAH
Turning to B2, the binding result in series [6] was “binds”.

(Values after US20130004504A1, “METHOD OF MODULATING PHENYLALANINE HYDROXYLASE STRUCTURE AND FUNCTION” (Fox Chase Cancer Center, priority 2011, published 2013).)
